Experimental data published in patent US9034825B2, “Treatment of myocardial injury with humanin analogs” (Albert Einstein College of Medicine of Yeshiva University, priority 2007, dated 2015).
Where no end group is shown, it is not given here.

Key:
Sprague-Dawley rats [1] = test: ICV infusion of IGF-1, IGFBP-3 or NLS mutant with basal and hyperinsulinemic clamp; type: in vivo, rat; details: for Glycogen synthesis, Basal / Glycolysis, Basal / HGP, Basal: basal period; for GIR, Clamp: hyperinsulinemic clamp 3 mU/kg/min; for FFA: last 60 min; for whole body glucose disposal / peripheral glucose uptake (Rd) compared to controls: final 60 min; for infused human peptide in the rat periphery: after ICV infusion
Source text: Young (3 mo old, n=6 in each group), male Sprague-Dawley rats (Charles River Laboratories, Wilmington, Mass.) were used for this study. Rats were housed in individual cages and were subjected to a standard light (6:00 AM to 6:00 PM)—dark (6:00 PM to 6:00 AM) cycle. All rats were fed ad libitum using regular rat chow that consisted of 64% carbohydrate, 30% protein, and 6% fat with a physiological fuel value of 3.3-kcal/g chow. In the rats that received ICV infusions, 2 to 4 weeks before the in vivo study, the rats were anesthetized by inhalation of isoflurane and a cannula was placed ICV in the third ventricle for infusions of IGF-1, IGFBP-3 or IGFBP-3 mutant or artificial cerebrospinal fluid (aCSF), as previously described (Muzumdar et al., 2003) (FIG. 1). Briefly, a 26-gauge stainless steel guide cannula (Plastics One, Roanoke, Va.) was chronically implanted into the third ventricles using the following coordinates from bregma: anterior-posterior; +0.2 mm dorsal-ventral; −9.0 mm medial-lateral; 0.0 directly on the mid-sagittal suture, followed by a 28-gauge dummy cannula, inserted to prevent clogging of the guide cannula. The implant was secured to the skull with Caulk Grip dental cement, and the skin was closed over the implant using wound clips. The recovery of rats from the surgical stress was monitored with daily weight, food intake, and movement.
Upon recovery of body weight, usually a week, indwelling catheters were placed in the right internal jugular vein and in the left carotid artery (Muzumdar et al., 2003). The venous catheter was extended to the level of the right atrium, and the arterial catheter was advanced to the level of the aortic arch. Recovery was continued until body weight was within 3% of the pre-operative weight (˜4-6 days). In the rats that received peripheral IGFBP-3, only the vascular catheters were placed.
Studies were performed in unrestrained rats using the insulin clamp technique, in combination with high performance liquid chromatography-purified [3-^3H]glucose and [U-^14C]lactate infusions, as described previously (Liu et al., 1998). Food was removed for ˜5 h before the in vivo protocol. All studies lasted 360 min and included a 120-min equilibration period, a 120-min basal period for assessment of the basal glucose turnover, and a 120-min hyperinsulinemic clamp period. All rats received ICV infusions (bolus followed by continuous ICV infusions of IGF-1, IGFBP-3, IGFBP-3 mutant or aCSF, depending on the group) over the entire 6 hours of the study. At the beginning of the basal period and 120 min before starting the glucose/insulin infusions, a primed-continuous infusion of high performance liquid chromatography-purified [3-^3H]glucose (NEN Life Science Products, Boston, Mass.; 20 μCi of bolus, 0.2 μCi/min) was initiated and maintained throughout the remaining 4 h of the study. In the final 2 hours of the study, the rats were subjected to hyperinsulinemic clamp. The protocol followed during the insulin clamp study was similar to that previously described (Liu et al., 1998). Briefly, a primed-continuous infusion of regular insulin (3 milliunits/kg·min) was administered, and a variable infusion of a 25% glucose solution was started and periodically adjusted to clamp the plasma glucose concentration at 7-8 mM. To prevent endogenous insulin secretion and in order to control for possible effects of ICV infusions on the endocrine pancreas, somatostatin (1.5 μg/kg·min) was also infused in all the groups. [U-^14C]Lactate (5 μCi of bolus/0.25 μCi/min) was infused during the last 10 min of the study.
A bolus of hIGF-1 (0.3 mcg, a gift from Tercica, South San Francisco) was followed by a continuous infusion over 6 hours (total dose of 1 mcg, 0.06 μg/kg/hr).
A bolus of non glycosylated hIGFBP-3 (1.25 μg, generously provided by Celtrix, Mountain View Calif.) was followed by a continuous infusion over 6 hours (total dose of 5.25 mcg, 0.26 μg/kg/hr). […]

PEPCK mRNA in the liver = test: Hepatic PEPCK mRNA by qRT-PCR at end of clamp after ICV infusion; type: in vivo, rat; details: ICV infusion for 6 h, end of clamp (Example 1)
Protocol: (§1) Total RNA was extracted following Clontech's protocol. First-stranded cDNA was synthesized from 1 μg of total RNA using Superscript III (Gibco, Gaithersburg, Md.). Hepatic glucose-6-phosphatase (Glc-6-Pase) and phosphoenolpyruvate carboxykinase (PEPCK) mRNA abundance were assessed by qRT-PCR as described previously (Buettner et al., 2005). Quantification of these peptides and their copy number was normalized for GAPDH and 18S to correct for loading irregularities. The data presented are those normalized by GAPDH.

[2] = test system: Glc-6-Pase mRNA in the liver; test: Hepatic Glc-6-Pase mRNA by qRT-PCR at end of clamp after ICV infusion; type: in vivo, rat
Protocol: as §1

NIT cells = test: Survival, STAT-3 and ERK activation in NIT cells; type: cell-based
Source text: Z-humanin, […] (SEQ ID NO:19).

[3] = test system: pAKT and pSTAT-3 in hepatocytes; test: Western blot of Phospho-STAT3 and Phospho-AKT in primary hepatocytes; type: cell-based, rat
Protocol: Single-cell suspensions of hepatocytes were obtained from perfusions of Sprague-Dawley rats using the procedure of Berry and Friend (1969) and the perfusion mixture of Leffert et al (1979). Hepatocyte glucose production was estimated after a 24 hr treatment with HN, F6A and saline as described before (Berg et al. 2001). In a separate set of experiment, hepatocytes were lysed, and protein extracted in RIPA lysis buffer at 30, 60 and 360 min post treatment with FIN, F6A and saline. The cell lysates were then subject to western blotting for Phospho-STAT3 (Tyr705), total-STAT3, Phospho-AKT (Ser473), and total-AKT expression (antibodies purchased from Cell Signaling, #9131, #9132, #9271, #9272).

IGF-1 = IGF-1 (Homo sapiens, UniProt P05019); test: Western ligand blots with 125I-labeled IGF-1; type: binding; details: data not shown
Chain of IGF-1 (P05019 49-118): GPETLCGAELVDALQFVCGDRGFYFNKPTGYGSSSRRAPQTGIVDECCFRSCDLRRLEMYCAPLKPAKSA

BP3KO MEFs = test: Apoptosis ELISA in IGFBP3 KO mouse embryonic fibroblasts; type: cell-based; details: 24 hours, 100 nM of peptides
Protocol: Mouse embryonic fibroblasts derived from normal and IGFBP3 KO mice were used to test the effects of humanin and its analogues on survival. Apoptosis ELISA was used as an output measure and cells were treated for 24 hours with 100 nM of peptides. […] Thus, the HNGF6A humanin analogue has non-obvious properties that are different from previously described humanin derivatives and has increased potency as a result of its specific molecular alteration leading to reduced IGFBP-3 binding.

[4] = test system: mice, myocardial ischemia-reperfusion (I/R) injury; test: Murine myocardial ischemia-reperfusion injury; type: in vivo, mouse
Protocol: The cardioprotective effects of a single-dose of humanin analog HNG treatment were investigated in a murine model of myocardial ischemia-reperfusion (I/R) injury. Mice were subjected to transient myocardial ischemia for a period of 45 min followed by 24 hour reperfusion. HNG (1, 5, 10, 25, 50 and 200 microgram) or vehicle (saline) was administered intraperitoneally one hour before ischemia.

[5] = test system: memory impairment caused by AD-related insults; details: literature (Tajima et al., 2005); cited from earlier work
Sprague-Dawley rats [6] = test: Intravenous infusion of humanin or analogs during hyperinsulinemic clamp; type: in vivo, rat; details: IV during hyperinsulinemic clamp
Protocol: To study the acute effects of an infusion of IGFBP-3, two groups of awake, unstressed, chronically catheterized Sprague-Dawley rats (˜300 g) were studied for 300 min (n=3 in each group) under hyperinsulinemic clamp (as previously described). From 120 min the rats received a primed continuous infusion of humanin (0.375 mg/kg/hr) or saline (control) for an additional 2 h. Plasma samples for determination of [3H]glucose and [3H] water specific activities were obtained at 10-min intervals during the basal and clamp periods. Steady state conditions for the plasma glucose concentration and specific activity were achieved within 90 min in all the studies. Plasma samples for determination of HN, insulin and FFA concentrations were collected at 30-min intervals throughout the study. All determinations were also performed on portal vein blood obtained at the end of the experiments. The total amount of blood drawn during the entire study for various assays is ˜3 cc. After separation of plasma (subsequently used for analysis), the red blood cells were reconstituted in saline and infused back into the animal.
To determine if peripheral infusion of the humanin analog colivelin affects insulin action, saline or colivelin (one hundredth of the dose of humanin) was infused intravenously during hyperinsulinemic clamp to two groups of rats that were matched for body weight (˜300 gm), visceral fat (˜3.5 grams), basal glucose (˜135 mg % or 7 mM). Colivelin increased hepatic insulin sensitivity by 33% while peripheral glucose uptake was unchanged (FIG. 14).
A primed-continuous ICV infusion of HN, F6A-HN (total dose of 20 μg), STAT-3 inhibitor (75 pmol) (Buettner et al. 2006), or aCSF was initiated at t=0 and maintained for the remainder of the experiment (FIG. 15A). Pancreatic insulin-clamp studies or euglycemic-hyperinsulinemic clamps were performed in conscious, unrestrained, catheterized mice for last 120 minutes as described previously (Bahar et al. 2006, Muzumdar et al. 2006). In the intra-venous group, HN, F6A, Colivelin, and HNGF6A were infused intravenously and hyperinsulinemic clamps were performed as described previously (Loeb et al. 2005). Estimation of glucose, glucose fluxes, insulin, FFA were done as described previously (Loeb et al. 2005). HN measurements were performed by an in-house, ELISA utilizing affinity purified humanin antibodies that recognize both human and rat humanin and has a limit of detection of 0.1 ng/ml (Hwang, and Cohen personal communication).

[7] = ICV IGF-1 1 μg over 6 h, hyperinsulinemic clamp
[8] = ICV infusion, hyperinsulinemic clamp
[9] = ICV IGFBP-3 or NLS mutant over 6 h
[10] = ICV IGFBP-3 or NLS mutant over 6 h, hyperinsulinemic clamp
[11] = humanin 0.375 mg/kg/hr, colivelin one hundredth of the dose of humanin

IGF-1: hIGF-1, Insulin-like growth factor-1, a gift from Tercica
Glycogen synthesis, Basal (Sprague-Dawley rats [1]; ICV IGF-1 1 μg over 6 h): 4.87 ± 0.87
Glycolysis, Basal (Sprague-Dawley rats [1]; ICV IGF-1 1 μg over 6 h): 7.02 ± 0.93 mg/kg/min
HGP, Basal (Sprague-Dawley rats [1]; ICV IGF-1 1 μg over 6 h): 12.4 ± 1.65 mg/kg/min
Glycogen synthesis, Clamp (Sprague-Dawley rats [1]; [7]): 8.09 ± 0.67
Glycolysis, Clamp (Sprague-Dawley rats [1]; [7]): 13.53 ± 1.17 mg/kg/min
HGP, Clamp (Sprague-Dawley rats [1]; [7]): 2.49 ± 0.54 mg/kg/min
Rd, Clamp (Sprague-Dawley rats [1]; [7]): 21.62 ± 0.74 mg/kg/min
GIR, Clamp (Sprague-Dawley rats [1]; ICV IGF-1 1 μg over 6 h): 19.08 ± 1.55 mg/kg/min
FFA (Sprague-Dawley rats [1]; [7]): 0.23 ± 0.02 mEq/l
IGF-1, human (Sprague-Dawley rats [1]; ICV IGF-1 1 μg over 6 h, peripheral plasma): 0 ng/mL
improvement in hepatic insulin action (lower HGP than controls) (Sprague-Dawley rats [1]; ICV IGF-1, insulin clamp 3 mU/kg/min): 50%
gluconeogenesis (Sprague-Dawley rats [1]; [8]): 0.54 ± 0.2 mg/kg/min
glycogenolysis / hepatic glucose fluxes compared to controls (Sprague-Dawley rats [1]; [8]): marked decrease
insulin induced suppression of FFA compared to controls (Sprague-Dawley rats [1]; [8]): significantly higher
whole body glucose disposal / peripheral glucose uptake (Rd) compared to controls (Sprague-Dawley rats [1]; [8]): tended to augment
infused human peptide in the rat periphery (Sprague-Dawley rats [1]): No hIGF-1 was detected
infused human peptide in the rat periphery (Sprague-Dawley rats [1]; listed as human IGF-1): No human IGF-1, hIGFBP-3 or NLS-IGFBP-3 was identified
PEPCK mRNA in the liver, ratio to GAPDH (PEPCK mRNA in the liver): 3.4 ±0.6
expression of G-6Pase lower than aCSF ([2]; ICV IGF-1, end of clamp): 3 fold
expression of G-6Pase in the liver, ratio to GAPDH ([2]; ICV infusion for 6 h, end of clamp (Example 1)): 2.6 ±0.6

MAKRGLNCLPHQVSEIDLSVQKRI (Danio rerio) [Z-humanin]
potency in survival, STAT-3 activation and ERK activation relative to humanin (NIT cells): two-fold greater potency than humanin

MAPRGASCLLLLTGEIDLPVARRA (Humanin analog HNGF6AK21A)
potency in survival, STAT-3 activation and ERK activation relative to humanin (NIT cells): much greater potency than humanin

MAPRGASCLLLLTSEIDLPVKRRA [F6A HN, maprgascll lltseidlpv krra]
pAKT or pSTAT-3 in hepatocytes [3]: did not elicit significant changes

NLS: non-glycosylated NLS mutant of IGFBP-3 with two amino acid substitutions (K228E and R230G)
Glycogen synthesis, Basal (Sprague-Dawley rats [1]; [9]): 5.34 ± 0.38
Glycolysis, Basal (Sprague-Dawley rats [1]; [9]): 7.40 ± 0.71 mg/kg/min
HGP, Basal (Sprague-Dawley rats [1]; [9]): 13.00 ± 0.72 mg/kg/min
Glycogen synthesis, Clamp (Sprague-Dawley rats [1]; [10]): 6.93 ± 0.37
Glycolysis, Clamp (Sprague-Dawley rats [1]; [10]): 10.44 ± 0.96 mg/kg/min
HGP, Clamp (Sprague-Dawley rats [1]; [10]): 5.37 ± 0.65 mg/kg/min
Rd, Clamp (Sprague-Dawley rats [1]; [10]): 17.38 ± 1.11 mg/kg/min
GIR, Clamp (Sprague-Dawley rats [1]; [9]): 11.98 ± 1.14 mg/kg/min
FFA (Sprague-Dawley rats [1]; [10]): 0.35 ± 0.05 mEq/l
h-IGFBP-3 (Sprague-Dawley rats [1]; ICV IGFBP-3 or NLS mutant over 6 h, peripheral plasma): 0 ng/mL
glycogenolysis / hepatic glucose fluxes compared to controls (Sprague-Dawley rats [1]; [8]): no changes in glucose fluxes compared to controls
whole body glucose disposal / peripheral glucose uptake (Rd) compared to controls (Sprague-Dawley rats [1]; [8]): did not result in significant changes
infused human peptide in the rat periphery (Sprague-Dawley rats [1]): No human IGF-1, hIGFBP-3 or NLS-IGFBP-3 was identified
binding to 125I-labeled IGF-1 (IGF-1): bound equally

maprgfscll lltgeidlpv krra (MAPRGFSCLLLLTGEIDLPVKRRA; Humanin analog S14G (HNG)) [humanin analogue in which serine at position 14 is replaced by glycine]
potency on survival (Apoptosis ELISA) (BP3KO MEFs): equal potency
myocardial injury ([4]; single dose IP one hour before 45 min ischemia, 24 hour reperfusion): decreased myocardial injury
doses at which reduced myocardial infarct was observed ([4]; single dose IP one hour before ischemia, 1-200 microgram tested): ≥ 5 µg
potency relative to native HN in rescue activity against AD-related insults in vivo [5]: 1000 times

sallrsipap agasrllllt geidlp (SALLRSIPAPAGASRLLLLTGEIDLP; Humanin analog colivelin)
HGP / hepatic insulin action (Sprague-Dawley rats [6]; HN 0.375 mg/kg/hr, Colivelin 0.00375 mg/kg/hr): significant further enhancement in hepatic insulin action
increase in hepatic insulin sensitivity (Sprague-Dawley rats [6]; [11]): 33%
peripheral glucose uptake (Sprague-Dawley rats [6]; [11]): unchanged
